Assay results reported in patent US20070259837A1, “Use of Non-Glucocorticoid Steroids for the Treatment of Muscular Dystrophy” (SANTHERA PHARMACEUTICALS (SCHWEIZ) AG, priority 2004, published 2007).
Like-named read-outs stand apart in the source and are kept apart here.

Test system: utrophin protein in human muscle cells derived from DMD patients
Test: Cell-based ELISA for normalized utrophin protein level in primary human myotube cultures
Details: for % UTR vs. PDN (normalized utrophin protein as % of PDN-treated sister cultures): same experiment; for activity at 0.5 µM: Myotube, read-out: % UTR vs. DMSO (normalized utrophin protein over DMSO-solvent treated control)
Protocol: The method used to detect and determine utrophin-inducing activity of non-glucocorticoid steroids has been described previously (Courdier-Fruh, I., Barman, L., Briguet, A. & Meier, T.; 2002, Neuromuscul. Disord.; 12 Suppl:S95). Briefly, primary human muscle cell cultures were prepared according to standard protocols (Askanas V, Kwan H, Alvarez R B, Engel W K, Kobayashi T, Martinuzzi A, Hawkins E F., 1987, J Neurocytol., 16:523-537). Test compounds and the glucocorticoid 6α-methylprednisolone-21 sodium succinate (Pharmacia & Upjohn; Solu-Medrol®, PDN) as reference compound were applied at 500 nM final concentration as soon as myoblasts started to differentiate into myotubes. Incubation with the test compound was ended as soon as well differentiated myotubes have formed, typically resulting in an incubation time with a test compound for 3-7 days.
Normalized concentrations of utrophin protein in human muscle cells cultured in microtiter plates were determined by a cell-based enzyme-linked immunosorbent assay (ELISA) procedure that allows a successive readout for the cell density and utrophin protein level. For calibration, the cell density and differentiation was determined by absorbance measurements of the total dehydrogenase enzyme activity in each well using the colorimetric CellTiter 96®AQ One Solution Reagent Proliferation Assay (Promega) according to the manufacturer's recommendation. Subsequently, cells were fixed, washed, permeabilized with 0.5% (v/v) Triton X-100 and unspecific antibody binding-sites were blocked by standard procedures. Utrophin protein levels were determined immunologically with utrophin-specific primary antibodies (mouse monoclonal antibody to the amino terminal portion of utrophin, NCL-DRP2, Novocastra Laboratories) and with appropriate peroxidase-coupled secondary antibodies using QuantaBlu™ Fluorogenic Peroxidase Substrate Kit (Pierce) for detection. Fluorescence measurements were carried out with a multilabel counter (Wallac) at λex=325 nm and at λem=420 nm. The primary readout of this signal is presented in arbitrary units. For calibration, the arbitrary units representing the relative utrophin protein content of each well were divided by the corresponding cell-titer absorbance value to correct for cell density. For comparison between experiments, the cell-titer corrected readout for utrophin protein content in each well was expressed in percent of solvent treated control cultures (set to 100%). PDN was included in all experiments as reference glucocorticoid, N=3-5 for each compound tested.
Non-glucocorticoid test compounds, applied in a concentration of 500 nM, were regarded as “positive” in case the increase in the level of utrophin protein was at least 20% (mean value) over control cultures treated with the appropriate dilution of DMSO solvent as control and containing no test compound.
A range of different pharmaceutical compounds were tested for their ability to increase levels of utrophin protein in primary human myotube cultures. The cell-based ELISA protocol used to detect the level of utrophin protein is provided above and described in Courdier-Fruh, I., Barman, L., Briguet, A. & Meier, T, 2002, Neuromuscul. Disord.: 12, Suppl:S95. Briefly, fixed and permeabilized human muscle cells derived from DMD patients and cultured in 96-well cell culture plates were incubated with antibodies specific for utrophin at a dilution of 1:1'000 in blocking solution (phosphate buffered saline (PBS) supplemented with 2% fetal calf serum and 1% bovine serum albumin) for 10-15 hours at 4° C. Following several washing steps with 0.1% Triton X-100 in PBS, peroxidase-coupled secondary antibodies diluted 1:3'000 in blocking solution were applied in each well for 1-2 hours at room temperature. Signal detection, data acquisition and normalization was performed as described above and in Courdier-Fruh, I., Barman, L., Briguet, A. & Meier, T, 2002, Neuromuscul. Disord.: 12, Suppl:S95. […]

[1] = 500 nM compound, human muscle cultures, mean value, N=3-6

SMILES | % UTR vs. PDN (normalized utrophin protein as % of PDN-treated sister cultures) [1] | activity at 0.5 µM (Homo sapiens) | activity at 0.5 µM [1]
CC1CC[C@@]2(OC1)O[C@H]1C[C@H]3[C@@H]4CC[C@H]5CC(=O)CC[C@]5(C)C4CC[C@]3(C)C1[C@@H]2C (stereo partly shown) [Example 28] | 93% | 120% | 
C[C@]12CCC3c4ccc(OC(=O)c5ccccc5)cc4CCC3C1C[C@@H](O)[C@@H]2O (stereo partly shown) [Example 78] | 99% | 124% | 
CC(C)CCCC(C)[C@H]1CCC2C3C(=O)C[C@H]4C[C@@H](OC(=O)c5ccccc5)CC[C@]4(C)C3CC[C@@]21C (stereo partly shown) [Example 30] | 109% | 127% | 
CC(=O)C1CCC2C3CC[C@H]4C[C@@H](O)CC[C@]4(C)C3CC[C@]12C (stereo partly shown) [Example 62] | 99% | 129% | 
C[C@]12C(=CCC1C1=CC(=O)OC1)C1CC[C@@H]3C[C@@H](O)CC[C@]3(C)C1C[C@H]2O (stereo partly shown) [Example 81] | 103% | 129% | 
CC1CC[C@@]2(OC1)O[C@H]1C[C@H]3[C@@H]4CC[C@H]5C[C@@H](OC(=O)c6ccccc6)CC[C@]5(C)C4=CC[C@]3(C)C1[C@@H]2C (stereo partly shown) [Example 22] | 106% | 123% | 
CCC(=O)O[C@H]1CCC2C3CCC4=CC(=O)CC[C@]4(C)C3CC[C@@]21C (stereo partly shown) [Example 48, Testosterone propionate] | 98% | 122% | 
CC(=O)O[C@H]1CC[C@]2(C)C3=CC[C@]4(C)C(C(C)=O)=CCC4C3CC[C@H]2C1 (stereo partly shown) [Example 55] | 107% | 125% | 
CC(=O)O[C@H]1CC[C@]2(C)C3CC[C@]4(C)C(C(C)=O)=CCC4C3CC[C@H]2C1 (stereo partly shown) [Example 60] | 101% | 127% | 
CC(C)CCCC(C)[C@H]1CCC2C3C(=O)C=C4C[C@@H](O)CC[C@]4(C)C3CC[C@@]21C (stereo partly shown) [Example 31] | 109% | 137% | 
CC(=O)O[C@H]1CC[C@]2(C)C3C=C[C@]4(C)C5[C@H](C[C@H]4[C@@H]3CC[C@H]2C1)O[C@]1(CCC(C)CO1)[C@H]5C (stereo partly shown) [Example 25] | 102% | 129% | 
CC1CC[C@@]2(OC1)O[C@H]1C[C@H]3[C@@H]4CC[C@H]5C[C@@H](O)CC[C@]5(C)C4CC(=O)[C@]3(C)C1[C@@H]2C (stereo partly shown) [Example 27] | 97% | 122% | 
CC(=O)O[C@H]1CC[C@]2(C)C3=CC(=O)[C@]4(C)C5[C@H](C[C@H]4[C@@H]3CC[C@H]2C1)O[C@]1(CCC(C)CO1)[C@H]5C (stereo partly shown) [Example 23] | 103% | 129% | 
CC(=O)C1CCC2C3CC[C@H]4C[C@H](O)CC[C@]4(C)C3C[C@H](O)[C@]12C (stereo partly shown) [Example 65] | 97% | 121% | 
C[C@]12CCC3c4ccc(OC(=O)c5ccccc5)cc4CCC3C1CCC2=O (stereo partly shown) [Example 74] | 103% | 124% | 
CC(CCC(=O)O)C1CCC2C3C(CC[C@]12C)[C@@]1(C)CC[C@@H](O)C[C@H]1C[C@@H]3O (stereo partly shown) [Example 10] | 96% | 121% | 
CC(=O)O[C@@H]1CC[C@]2(C)C3C[C@H](OC(C)=O)[C@]4(C)C(C(C)CCC(=O)O)CCC4C3CC[C@@H]2C1 (stereo partly shown) [Example 3] | 122% | 144% | 
CC(=O)[C@H]1CCC2C3CCC4=CC(=O)CC[C@]4(C)C3[C@H](OC(=O)c3ccccc3)C[C@@]21C (stereo partly shown) [Example 57] | 104% | 120% | 

SMILES | % UTR vs. PDN (normalized utrophin protein as % of PDN-treated sister cultures) [1] | activity at 0.5 µM (Homo sapiens) | activity at 0.5 µM [1]
CC1CC[C@@]2(OC1)O[C@H]1C[C@H]3[C@@H]4CC[C@H]5C[C@@H](O)CC[C@]5(C)C4CC[C@]3(C)C1[C@@H]2C (stereo partly shown) [Example 29] | 91% | 120% | 
CC(=O)O[C@H]1CC[C@]2(C)C3C(=O)C[C@@]4(C)[C@H](C(C)CCC(=O)O)CC[C@]4(C)C3C(=O)CC2C1(C)C (stereo partly shown) [Example 14] | 92% | 115% | 
CC(CCC(=O)O)C1CCC2C3CC[C@@H]4C[C@H](O)CC[C@]4(C)C3CC[C@]12C (stereo partly shown) [Example 9] | 98% |  | 119%
CC(=O)O[C@@]1(C(C)=O)CCC2C3C[C@H](C)C4=CC(=O)CC[C@]4(C)C3CC[C@@]21C (stereo partly shown) [Example 54] | 106% |  | 135%
C[C@]12CCC3c4ccc(O)cc4C=CC3C1CCC2=O (stereo partly shown) [Example 80] | 96% |  | 125%
C[C@]12CC(=O)C3C(CC[C@H]4C[C@@H](O)CC[C@]34C)C1CCC2=O (stereo partly shown) [Example 49] | 97% | 127% | 
CC(=O)OC1CCC2C3CC[C@H]4C[C@H](O)CC[C@]4(C)C3CC[C@]12C (stereo partly shown) [Example 44] | 99% | 129% | 
C[C@]12CCC3C(CC[C@]4(O)C[C@@H](O)CC[C@]34C=O)[C@@]1(O)CCC2C1=CC(=O)OC1 (stereo partly shown) [Example 82] | 101% | 122% | 
CC(CCC(=O)O)C1CCC2C3CC[C@@H]4C[C@H](OC(=O)c5ccccc5)CC[C@]4(C)C3C(=O)C[C@]12C (stereo partly shown) [Example 6] | 106% | 123% | 
CC(=O)OCC(=O)C1=CCC2C3CC[C@H]4C[C@@H](OC(C)=O)CC[C@]4(C)C3CC[C@]12C (stereo partly shown) [Example 59] | 102% | 121% | 
CC(=O)O[C@@H]1CC[C@]2(C)C3CC[C@]4(C)[C@@H](C(=O)O)[C@@H](OC(C)=O)C[C@]4(O)C3CC[C@@H]2C1 (stereo partly shown) [Example 19] | 98% | 123% | 
C[C@]12C[C@@H](O)C3C(CC[C@@H]4C[C@@H](O)CC[C@]34C)C1=CCC2C1=CC(=O)OC1 (stereo partly shown) [Example 85] | 99% | 120% | 
C[C@]12CC[C@H](Cl)CC1=CCC1C2CC[C@]2(C)C(=O)CCC12 (stereo partly shown) [Example 50] | 98% | 123% | 
CC(=O)OCC(=O)[C@H]1CCC2C3CCC4=CC(=O)CC[C@]4(C)C3CC[C@@]21C (stereo partly shown) [Example 67] | 96% |  | 120%
C[C@]12CCC(=O)C[C@H]1CCC1C2C(=O)C[C@]2(C)C(C3=CC(=O)OC3)CC[C@]12O (stereo partly shown) [Example 84] | 98% | 123% | 
CC(=O)O[C@@H]1CC[C@]2(C)C3C(=O)C[C@]4(C)C(C(C)CCC(=O)O)CCC4C3CC[C@@H]2C1 (stereo partly shown) [Example 4] | 112% | 130% | 
C[C@]12CCC(=O)C=C1CCC1C2CC[C@]2(C)[C@@H](C(=O)O)CC[C@]12O (stereo partly shown) [Example 18] | 101% | 120% | 
